Measurements published in patent publication US20200331925A1, “HETEROCYCLIC COMPOUNDS FOR THE TREATMENT OF ABNORMAL CELLULAR PROLIFERATION” (G1 Therapeutics, Inc., priority 2018, published 2020).
pIC50: −log10 of the molar value.

What was measured:
Assay type in all cases: biochemical
[1] = target: CDK1/Cyclin B1 (Homo sapiens, UniProt P06493); test: CDK1/Cyclin B1 kinase assay (Nanosyn, Caliper microfluidic); conditions: 12-point dose-response, ATP at Km (40 μM), 3 hr
Experimental: (§1) Selected compounds disclosed herein were tested in kinase assays by Nanosyn (Santa Clara, Calif.) to determine their inhibitory effect on selected CDKs. The assays were performed using microfluidic kinase detection technology (Caliper Assay Platform). The compounds were tested in 12-point dose-response format in singlicate at Kmfor ATP. Phosphoacceptor substrate peptide concentration used was 1 μM for all assays and Staurosporine was used as the reference compound for all assays. Specifics of each assay are as described below: CDK1/Cyclin B1: Enzyme concentration: 0.08 nM; ATP concentration: 40 μM; Incubation time: 3 hr.

[2] = target: CDK2/Cyclin A (Homo sapiens, UniProt P24941); test: CDK2/Cyclin A kinase assay (Nanosyn, Caliper microfluidic); conditions: 12-point dose-response, ATP at Km (50 μM), 3 hr
Experimental: as §1, with “CDK2/Cyclin A:” for “CDK1/Cyclin B1:”, “0.1” for “0.08”, “50” for “40”

[3] = target: CDK2/Cyclin E (Homo sapiens, UniProt P24941); test: CDK2/Cyclin E kinase assay (Nanosyn, Caliper microfluidic); conditions: 12-point dose-response, ATP at Km (100 μM), 3 hr
Experimental: as §1, with “CDK2/Cyclin E:” for “CDK1/Cyclin B1:”, “0.15” for “0.08”, “100” for “40”

[4] = target: CDK3/Cyclin E (Homo sapiens, UniProt Q00526); test: CDK3/Cyclin E kinase assay (Nanosyn, Caliper microfluidic); conditions: 12-point dose-response, ATP at Km (400 μM), 3 hr
Experimental: as §1, with “CDK3/Cyclin E:” for “CDK1/Cyclin B1:”, “1” for “0.08”, “400” for “40”

[5] = target: CDK4/Cyclin D1 (Homo sapiens, UniProt P11802); test: CDK4/Cyclin D1 kinase assay (Nanosyn, Caliper microfluidic); conditions: 12-point dose-response, ATP at Km (200 μM), 3 hr
Chain of CDK4/Cyclin D1 (P11802 whole entry): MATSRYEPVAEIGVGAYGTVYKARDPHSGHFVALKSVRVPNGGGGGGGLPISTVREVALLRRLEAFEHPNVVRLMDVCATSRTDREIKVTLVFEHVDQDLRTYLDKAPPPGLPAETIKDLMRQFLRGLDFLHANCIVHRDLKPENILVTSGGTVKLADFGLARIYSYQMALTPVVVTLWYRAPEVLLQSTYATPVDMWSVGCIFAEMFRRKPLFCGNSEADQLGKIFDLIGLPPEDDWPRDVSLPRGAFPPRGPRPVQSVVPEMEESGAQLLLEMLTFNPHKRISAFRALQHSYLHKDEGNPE
Chain of CDK4/Cyclin D1 (P24385 whole entry partner): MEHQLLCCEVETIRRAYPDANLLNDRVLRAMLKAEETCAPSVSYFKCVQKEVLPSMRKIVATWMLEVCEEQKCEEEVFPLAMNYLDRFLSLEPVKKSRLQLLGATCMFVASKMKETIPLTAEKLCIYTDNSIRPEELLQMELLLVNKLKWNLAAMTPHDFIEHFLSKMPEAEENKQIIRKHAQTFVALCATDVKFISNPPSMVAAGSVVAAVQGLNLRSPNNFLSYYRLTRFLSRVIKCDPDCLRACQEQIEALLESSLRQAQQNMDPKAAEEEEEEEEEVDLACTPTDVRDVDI
Experimental: as §1, with “CDK4/Cyclin D1:” for “CDK1/Cyclin B1:”, “1” for “0.08”, “200” for “40”

[6] = target: CDK5/p35 (Homo sapiens, UniProt Q00535); test: CDK5/p35 kinase assay (Nanosyn, Caliper microfluidic); conditions: 12-point dose-response, ATP at Km (20 μM), 3 hr
Experimental: as §1, with “CDK5/p35:” for “CDK1/Cyclin B1:”, “0.05” for “0.08”, “20” for “40”

[7] = target: CDK5/p25 (Homo sapiens, UniProt Q00535); test: CDK5/p25 kinase assay (Nanosyn, Caliper microfluidic); conditions: 12-point dose-response, ATP at Km (20 μM), 3 hr
Chain of CDK5/p25 (Q00535 whole entry): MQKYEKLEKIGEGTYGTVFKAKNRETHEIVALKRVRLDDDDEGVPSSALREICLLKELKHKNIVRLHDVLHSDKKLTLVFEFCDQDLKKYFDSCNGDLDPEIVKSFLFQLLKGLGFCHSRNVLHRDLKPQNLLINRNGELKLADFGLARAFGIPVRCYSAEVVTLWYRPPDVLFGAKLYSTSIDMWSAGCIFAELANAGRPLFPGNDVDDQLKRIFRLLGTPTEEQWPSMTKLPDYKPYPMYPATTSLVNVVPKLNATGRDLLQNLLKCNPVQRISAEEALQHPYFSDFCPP
Chain of CDK5/p25 (Q15078 99-307 partner limits assumed): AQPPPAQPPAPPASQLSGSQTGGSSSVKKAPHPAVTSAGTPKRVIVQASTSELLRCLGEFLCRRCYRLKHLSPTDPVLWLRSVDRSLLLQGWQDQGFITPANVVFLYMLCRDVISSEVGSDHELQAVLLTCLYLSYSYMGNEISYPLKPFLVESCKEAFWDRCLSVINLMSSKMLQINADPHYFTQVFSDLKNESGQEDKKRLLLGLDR
Experimental: as §1, with “CDK5/p25:” for “CDK1/Cyclin B1:”, “0.1” for “0.08”, “20” for “40”

[8] = target: CDK6/Cyclin D3 (Homo sapiens, UniProt Q00534); test: CDK6/Cyclin D3 kinase assay (Nanosyn, Caliper microfluidic); conditions: 12-point dose-response, ATP at Km (300 μM), 3 hr
Chain of CDK6/Cyclin D3 (Q00534 whole entry): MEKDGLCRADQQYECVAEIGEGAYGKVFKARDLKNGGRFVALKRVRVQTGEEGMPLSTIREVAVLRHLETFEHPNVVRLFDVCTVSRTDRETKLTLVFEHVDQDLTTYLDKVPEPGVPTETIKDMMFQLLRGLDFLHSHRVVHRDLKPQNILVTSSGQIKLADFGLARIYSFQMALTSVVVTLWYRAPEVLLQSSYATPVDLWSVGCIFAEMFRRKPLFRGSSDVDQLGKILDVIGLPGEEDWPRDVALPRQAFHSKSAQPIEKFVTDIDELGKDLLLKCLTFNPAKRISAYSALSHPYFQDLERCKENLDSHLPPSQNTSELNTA
Chain of CDK6/Cyclin D3 (P30281 whole entry partner): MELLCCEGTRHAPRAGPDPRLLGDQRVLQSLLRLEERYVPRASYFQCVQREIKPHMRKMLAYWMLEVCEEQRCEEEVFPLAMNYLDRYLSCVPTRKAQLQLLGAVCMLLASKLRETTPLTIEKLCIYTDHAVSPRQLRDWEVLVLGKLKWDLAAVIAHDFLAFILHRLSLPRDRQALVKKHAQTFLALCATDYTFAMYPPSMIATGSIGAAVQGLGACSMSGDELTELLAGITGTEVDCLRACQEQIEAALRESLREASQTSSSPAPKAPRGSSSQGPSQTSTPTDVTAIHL
Experimental: as §1, with “CDK6/Cyclin D3:” for “CDK1/Cyclin B1:”, “2” for “0.08”, “300” for “40”

[9] = target: CDK7/Cyclin H (Homo sapiens, UniProt P50613); test: CDK7/Cyclin H kinase assay (Nanosyn, Caliper microfluidic); conditions: 12-point dose-response, ATP at Km (50 μM), 17 hr
Chain of CDK7/Cyclin H (P50613 whole entry): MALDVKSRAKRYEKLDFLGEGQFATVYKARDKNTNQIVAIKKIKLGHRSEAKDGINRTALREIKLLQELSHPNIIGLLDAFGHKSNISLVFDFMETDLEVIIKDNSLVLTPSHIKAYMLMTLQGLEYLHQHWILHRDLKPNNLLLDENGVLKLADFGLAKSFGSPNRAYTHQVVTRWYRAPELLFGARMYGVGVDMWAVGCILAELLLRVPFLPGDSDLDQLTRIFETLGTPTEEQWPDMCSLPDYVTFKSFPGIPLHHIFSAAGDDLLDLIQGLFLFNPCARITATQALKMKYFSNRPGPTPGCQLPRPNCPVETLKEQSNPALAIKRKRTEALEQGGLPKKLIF
Chain of CDK7/Cyclin H (P51946 whole entry partner): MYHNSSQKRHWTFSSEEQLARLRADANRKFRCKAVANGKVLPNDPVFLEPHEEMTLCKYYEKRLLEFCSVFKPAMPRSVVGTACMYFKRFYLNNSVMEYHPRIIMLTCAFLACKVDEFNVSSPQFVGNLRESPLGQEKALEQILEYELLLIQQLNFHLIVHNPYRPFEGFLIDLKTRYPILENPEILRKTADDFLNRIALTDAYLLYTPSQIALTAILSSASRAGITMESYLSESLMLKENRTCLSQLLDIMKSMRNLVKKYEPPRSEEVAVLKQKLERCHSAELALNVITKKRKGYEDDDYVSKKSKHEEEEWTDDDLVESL
Chain of CDK7/Cyclin H (P51948 whole entry partner): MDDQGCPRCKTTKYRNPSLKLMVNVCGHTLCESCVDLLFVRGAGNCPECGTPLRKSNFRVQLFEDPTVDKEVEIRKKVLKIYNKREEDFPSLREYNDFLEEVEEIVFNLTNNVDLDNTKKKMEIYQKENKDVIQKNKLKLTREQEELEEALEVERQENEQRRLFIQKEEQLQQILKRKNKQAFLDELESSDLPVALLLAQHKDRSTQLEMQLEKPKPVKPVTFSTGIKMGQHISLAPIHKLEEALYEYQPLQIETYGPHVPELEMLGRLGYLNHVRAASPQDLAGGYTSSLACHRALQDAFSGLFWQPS
Experimental: as §1, with “CDK7/Cyclin H:” for “CDK1/Cyclin B1:”, “10” for “0.08”, “50” for “40”, “17” for “3”

[10] = target: CDK9/Cyclin T (Homo sapiens, UniProt P50750); test: CDK9/Cyclin T kinase assay (Nanosyn, Caliper microfluidic); conditions: 12-point dose-response, ATP at Km (10 μM), 17 hr
Chain of CDK9/Cyclin T (P50750 whole entry): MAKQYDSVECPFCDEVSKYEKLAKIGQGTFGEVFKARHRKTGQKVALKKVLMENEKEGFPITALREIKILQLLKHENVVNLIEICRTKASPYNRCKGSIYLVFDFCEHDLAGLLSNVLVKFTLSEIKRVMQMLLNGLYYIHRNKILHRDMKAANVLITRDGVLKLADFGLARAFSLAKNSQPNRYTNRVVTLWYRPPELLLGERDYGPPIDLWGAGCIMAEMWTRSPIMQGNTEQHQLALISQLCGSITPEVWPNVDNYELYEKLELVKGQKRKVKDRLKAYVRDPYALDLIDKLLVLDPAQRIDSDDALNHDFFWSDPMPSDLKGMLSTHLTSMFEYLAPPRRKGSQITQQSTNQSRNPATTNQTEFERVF
Chain of CDK9/Cyclin T (O60563 whole entry partner): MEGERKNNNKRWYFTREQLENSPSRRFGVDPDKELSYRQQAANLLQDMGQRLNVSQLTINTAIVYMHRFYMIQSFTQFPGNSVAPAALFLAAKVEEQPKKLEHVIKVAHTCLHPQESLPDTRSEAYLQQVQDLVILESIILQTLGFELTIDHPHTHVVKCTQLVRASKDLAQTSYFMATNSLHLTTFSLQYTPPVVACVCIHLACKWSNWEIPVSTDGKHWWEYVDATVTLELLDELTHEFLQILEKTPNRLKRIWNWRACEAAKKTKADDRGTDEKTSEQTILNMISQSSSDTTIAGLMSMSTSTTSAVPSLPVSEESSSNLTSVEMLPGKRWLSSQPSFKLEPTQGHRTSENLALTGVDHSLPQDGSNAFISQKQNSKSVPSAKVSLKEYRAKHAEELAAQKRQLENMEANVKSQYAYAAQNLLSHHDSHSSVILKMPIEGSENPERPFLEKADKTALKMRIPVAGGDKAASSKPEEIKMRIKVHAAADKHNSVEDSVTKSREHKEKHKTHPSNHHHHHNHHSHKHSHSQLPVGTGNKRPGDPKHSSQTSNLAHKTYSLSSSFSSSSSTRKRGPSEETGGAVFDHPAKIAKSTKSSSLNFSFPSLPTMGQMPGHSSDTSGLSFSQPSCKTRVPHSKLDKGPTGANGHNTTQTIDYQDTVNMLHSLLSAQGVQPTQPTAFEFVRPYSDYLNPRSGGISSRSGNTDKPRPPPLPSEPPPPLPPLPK
Experimental: as §1, with “[…]:” for “CDK1/Cyclin B1:”, “5” for “0.08”, “10” for “40”, “17” for “3”

Chain of CDK1/Cyclin B1 (P06493 whole entry): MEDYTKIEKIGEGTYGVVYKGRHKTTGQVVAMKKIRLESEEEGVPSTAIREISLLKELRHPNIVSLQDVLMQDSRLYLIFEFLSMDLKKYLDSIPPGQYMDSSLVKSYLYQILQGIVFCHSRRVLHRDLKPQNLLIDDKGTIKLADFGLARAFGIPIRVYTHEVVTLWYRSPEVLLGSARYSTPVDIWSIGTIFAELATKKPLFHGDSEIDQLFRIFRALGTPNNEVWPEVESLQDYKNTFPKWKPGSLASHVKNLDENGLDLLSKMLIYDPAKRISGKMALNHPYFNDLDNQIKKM
Chain of CDK1/Cyclin B1 (P14635 whole entry partner): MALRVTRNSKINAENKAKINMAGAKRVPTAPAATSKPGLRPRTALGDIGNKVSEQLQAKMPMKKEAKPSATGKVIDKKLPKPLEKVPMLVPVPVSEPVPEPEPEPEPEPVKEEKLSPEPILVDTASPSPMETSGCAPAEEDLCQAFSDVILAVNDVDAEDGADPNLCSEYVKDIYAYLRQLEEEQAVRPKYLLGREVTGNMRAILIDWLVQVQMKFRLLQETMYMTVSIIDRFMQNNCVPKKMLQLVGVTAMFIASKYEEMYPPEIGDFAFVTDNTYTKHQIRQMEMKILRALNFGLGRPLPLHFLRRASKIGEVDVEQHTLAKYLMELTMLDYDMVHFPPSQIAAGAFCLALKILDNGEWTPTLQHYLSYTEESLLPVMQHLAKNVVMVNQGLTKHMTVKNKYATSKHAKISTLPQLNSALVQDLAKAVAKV

With `C1=NCC2(CCCCC2)n2c1cc1cnc(N[C@@H]3CCCNC3)nc12` [Compound 51, (R)-N-(piperidin-3-yl)-8′H-spiro[cyclohexane-1,9′-pyrazino[1′,2′:1,5]pyrrolo[2,3-d]pyrimidin]-2′-amine] as the compound, how does the pIC50 [1] read?
Its pIC50 is 5.80.

What about the pIC50 [2] of the same compound?
Its pIC50 is 6.05.

What about the pIC50 [3] of the same compound?
Its pIC50 is 6.31.

And the pIC50 [4]?
The pIC50 was 6.21.

And the pIC50 ([5]; Table 4)?
The pIC50 was 6.54.

What about the pIC50 [6] of the same compound?
The pIC50 was 5.82.

And the pIC50 [7]?
Its pIC50 is 5.82.

What about the pIC50 [8] of the same compound?
The pIC50 was 5.96.

What about the pIC50 [9] of the same compound?
The pIC50 was 6.64.

What about the pIC50 ([10]; Table 5) of the same compound?
Its pIC50 is 6.70.

What does the source list for `O=C1NCC2(CCCCC2)n2c1cc1cnc(N[C@H]3C[C@@H](O)CNC3=O)nc12` [Compound 7, 2′-(((3S,5R)-5-hydroxy-2-oxopiperidin-3-yl)amino)-7′,8′-dihydro-6′H-spiro[cyclohexane-1,9′-pyrazino[1′,2′:1,5]pyrrolo[2,3-d]pyrimidin]-6′-one]?
pIC50 [1]: < 4.00; pIC50 [2]: 4.19; pIC50 [3]: < 4.00; pIC50 [4]: < 4.00; pIC50 ([5]; Table 4): 6.09; pIC50 [6]: < 4.00; pIC50 [7]: < 4.00; pIC50 [8]: 5.25; pIC50 [9]: < 4.00; pIC50 ([10]; Table 5): 5.47

With `O=C1NCC2(CCCCC2)n2c1cc1cnc(NC(=O)[C@H]3CNCCO3)nc12` [Compound 35, (R)-N-(6′-oxo-7′,8′-dihydro-6′H-spiro[cyclohexane-1,9′-pyrazino[1′,2′:1,5]pyrrolo[2,3-d]pyrimidin]-2′-yl)morpholine-2-carboxamide] as the compound, how does the pIC50 [1] read?
The pIC50 was 4.51.

And the pIC50 [2]?
Its pIC50 is 5.00.

And the pIC50 [3]?
The pIC50 was 4.59.

And the pIC50 [4]?
Its pIC50 is 4.27.

And the pIC50 ([5]; Table 4)?
The pIC50 was 4.57.

And the pIC50 [6]?
The pIC50 was 4.40.

And the pIC50 [7]?
The pIC50 was 4.37.

What about the pIC50 [8] of the same compound?
Its pIC50 is < 4.00.

What about the pIC50 [9] of the same compound?
The pIC50 was 4.21.

What about the pIC50 ([10]; Table 5) of the same compound?
The pIC50 was 7.06.

Which results are given for `C1=NCC2(CCCCC2)n2c1cc1cnc(NC3CCOCC3)nc12` [Compound 52, N-(tetrahydro-2H-pyran-4-yl)-8′H-spiro[cyclohexane-1,9′-pyrazino[1′,2′:1,5]pyrrolo[2,3-d]pyrimidin]-2′-amine]?
pIC50 [1]: 7.11; pIC50 [2]: 7.80; pIC50 [3]: 8.06; pIC50 [4]: 7.62; pIC50 ([5]; Table 4): 7.17; pIC50 [6]: 7.49; pIC50 [7]: 7.51; pIC50 [8]: 6.60; pIC50 [9]: 6.55; pIC50 ([10]; Table 5): 7.24

Which results are given for `O=C1NCC2(CCCCC2)n2c1cc1cnc(N[C@H]3CC[C@H](N4CCN(c5ccc(F)cc5)CC4)CC3)nc12` [Compound 60, 2′-(((1r,4r)-4-(4-(4-fluorophenyl)piperazin-1-yl)cyclohexyl)amino)-7′,8′-dihydro-6′H-spiro[cyclohexane-1,9′-pyrazino[1′,2′:1,5]pyrrolo[2,3-d]pyrimidin]-6′-one]?
pIC50 ([5]; Table 6): 7.89; pIC50 ([10]; Table 6): 8.52

`O=C1NCC2(CCCCC2)n2c1cc1cnc(N[C@H]3CC[C@H](N4CCN(CC5CCCCC5)CC4)CC3)nc12` [Compound 61, 2′-(((1r,4r)-4-(4-(cyclohexylmethyl)piperazin-1-yl)cyclohexyl)amino)-7′,8′-dihydro-6′H-spiro[cyclohexane-1,9′-pyrazino[1′,2′:1,5]pyrrolo[2,3-d]pyrimidin]-6′-one] was tested. Which pIC50 ([5]; Table 6) did it give?
Its pIC50 is 7.89.

`O=C1NCC2(CCCCC2)n2c1cc1cnc(N[C@H]3CC[C@H](N4CCN(C(=O)C5CC5)CC4)CC3)nc12` [Compound 62, 2′-(((1r,4r)-4-(4-(cyclopropanecarbonyl)piperazin-1-yl)cyclohexyl)amino)-7′,8′-dihydro-6′H-spiro[cyclohexane-1,9′-pyrazino[1′,2′:1,5]pyrrolo[2,3-d]pyrimidin]-6′-one] was tested. Which pIC50 ([5]; Table 6) did it give?
The pIC50 was 7.70.

With `O=C1NCC2(CCCCC2)n2c1cc1cnc(N[C@H]3CC[C@H](N4CCN(C5CCCC5)CC4)CC3)nc12` [Compound 59, 2′-(((1r,4r)-4-(4-cyclopentylpiperazin-1-yl)cyclohexyl)amino)-7′,8′-dihydro-6′H-spiro[cyclohexane-1,9′-pyrazino[1′,2′:1,5]pyrrolo[2,3-d]pyrimidin]-6′-one] as the compound, how does the pIC50 ([5]; Table 6) read?
Its pIC50 is 8.40.

What about the pIC50 ([10]; Table 6) of the same compound?
The pIC50 was 8.70.

With `O=C1NCC2(CCCCC2)n2c1cc1cnc(N[C@H]3CC[C@H](N4CCN(C5CC5)CC4)CC3)nc12` [Compound 58, 2′-(((1r,4r)-4-(4-cyclopropylpiperazin-1-yl)cyclohexyl)amino)-7′,8′-dihydro-6′H-spiro[cyclohexane-1,9′-pyrazino[1′,2′:1,5]pyrrolo[2,3-d]pyrimidin]-6′-one] as the compound, how does the pIC50 ([5]; Table 6) read?
Its pIC50 is 7.48.

How did the pIC50 ([5]; Table 6) turn out when `CC(C)(C)N1CCN([C@H]2CC[C@H](Nc3ncc4cc5n(c4n3)C3(CCCCC3)CNC5=O)CC2)CC1` [Compound 57, 2′-(((1r,4r)-4-(4-(tert-butyl)piperazin-1-yl)cyclohexyl)amino)-7′,8′-dihydro-6′H-spiro[cyclohexane-1,9′-pyrazino[1′,2′:1,5]pyrrolo[2,3-d]pyrimidin]-6′-one] was run?
The pIC50 was 8.30.

What about the pIC50 ([10]; Table 6) of the same compound?
The pIC50 was 8.52.

With `O=C1NCC2(CCCCC2)n2c1cc1cnc(N[C@H]3CC[C@H](N4CCC(C(F)(F)F)CC4)CC3)nc12` [Compound 56, 2′-(((1r,4r)-4-(4-(trifluoromethyl)piperidin-1-yl)cyclohexyl)amino)-7′,8′-dihydro-6′H-spiro[cyclohexane-1,9′-pyrazino[1′,2′:1,5]pyrrolo[2,3-d]pyrimidin]-6′-one] as the compound, how does the pIC50 ([5]; Table 6) read?
Its pIC50 is 7.57.

And the pIC50 ([10]; Table 6)?
Its pIC50 is 8.40.
